The target of data set [1] is T1, Rhesus PDE2A3 (Macaca mulatta, UniProt B3VTJ2).
T1 construct: made in house; host or cells: AD293 cells, transiently transfected with pcDNA3.3-TOPO; lysate supernatant used
T1 sequence (B3VTJ2 1-941): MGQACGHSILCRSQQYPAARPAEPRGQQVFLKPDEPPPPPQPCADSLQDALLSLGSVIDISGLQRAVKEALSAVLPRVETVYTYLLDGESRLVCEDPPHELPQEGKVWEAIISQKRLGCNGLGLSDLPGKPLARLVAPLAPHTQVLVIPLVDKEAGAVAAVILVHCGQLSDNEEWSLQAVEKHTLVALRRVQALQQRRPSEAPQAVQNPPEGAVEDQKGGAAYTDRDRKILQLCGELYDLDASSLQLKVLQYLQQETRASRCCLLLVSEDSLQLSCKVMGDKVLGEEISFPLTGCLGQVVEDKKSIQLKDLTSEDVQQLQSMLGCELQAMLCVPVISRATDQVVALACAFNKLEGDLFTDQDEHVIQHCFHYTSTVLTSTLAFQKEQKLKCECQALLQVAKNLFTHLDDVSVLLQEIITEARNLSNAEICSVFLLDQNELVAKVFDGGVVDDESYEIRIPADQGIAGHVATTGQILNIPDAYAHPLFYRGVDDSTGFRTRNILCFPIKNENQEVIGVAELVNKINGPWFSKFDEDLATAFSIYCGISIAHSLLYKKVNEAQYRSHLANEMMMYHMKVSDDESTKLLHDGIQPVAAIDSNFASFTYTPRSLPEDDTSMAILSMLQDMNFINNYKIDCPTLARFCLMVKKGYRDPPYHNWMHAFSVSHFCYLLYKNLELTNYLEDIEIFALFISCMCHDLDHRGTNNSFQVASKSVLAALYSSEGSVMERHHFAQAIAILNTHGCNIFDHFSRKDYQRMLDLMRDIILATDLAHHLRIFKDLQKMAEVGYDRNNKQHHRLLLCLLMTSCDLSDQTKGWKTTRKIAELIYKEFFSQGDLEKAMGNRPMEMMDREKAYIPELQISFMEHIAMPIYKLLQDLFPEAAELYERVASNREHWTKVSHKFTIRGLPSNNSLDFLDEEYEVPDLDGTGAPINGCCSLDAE
In words: PDE2 fluorescence polarization (IMAP FP) inhibition assay, rhesus PDE2A3. It counts as biochemical, rhesus macaque. The settings on record: Lab B; read-out: Rhesus PDE2 Ki (nM) Lab B. As to the method:
The activity of the compounds in accordance with the present invention as PDE2 inhibitors may be readily determined using a fluorescence polarization (FP) methodology (Huang, W., et al., J. Biomol Screen, 2002, 7: 215).
In a typical experiment the PDE2 inhibitory activity of the compounds of the present invention was determined in accordance with the following experimental method. Rhesus PDE2A3 was amplified from rhesus macaque brain cDNA (Biochain Institute, Hayward, Calif.) using primers based on human PDE2A sequence (accession NM_002599.3) where the forward primer containing a Kozak consensus was 5′-[…]-3′ and the reverse primer was 5′-[…]-3′. Amplification with Easy-A High-Fidelity PCR cloning enzyme (Stratagene, La Jolla, Calif.) was 95° C. for 2 minutes followed by thirty three cycles of 95° C. for 40 seconds, 52° C. for 30 seconds, and 72° C. for 2 minutes 48 seconds. Final extension was 72° C. for 7 minutes. The PCR product was TA cloned into pcDNA3.3-TOPO (Invitrogen, Carlsbad, Calif.) aaccording to standard protocol. A consensus sequence was developed from multiple clones and then deposited into GenBank (EU812167). AD293 cells (Stratagene, La Jolla, Calif.) with 70-80% confluency were transiently transfected with rhesus PDE2A3/pcDNA3.3-TOPO using Lipofectamine 2000 according to manufacturer specifications (Invitrogen, Carlsbad, Calif.). Cells were harvested 48 hours post-transfection and lysed by sonication (setting 3, 10×5 sec pulses) in a buffer containing 20 mM HEPES pH 7.4, 1 mM EDTA and Complete Protease Inhibitor Cocktail Tablets (Roche, Indianapolis, Ind.). Lysate was collected by centrifugation at 75,000×g for 20 minutes at 4° C. and supernatant utilized for evaluation of PDE2 activity. The fluorescence polarization assay for cyclic nucleotide phosphodiesterases was performed using an IMAP® FP kit supplied by Molecular Devices, Sunnyvale, Calif. (product # R8139). […] Assays were performed at room temperature in 384-well microtiter plates with an incubation volume of 20.2 μL. Solutions of test compounds were prepared in DMSO and serially diluted with DMSO to yield 8 μL of each of 10 solutions differing by 3-fold in concentration, at 32 serial dilutions per plate. […] 0% of inhibition is determined by using DMSO (1% final concentrations).
A Labcyte Echo 555 (Labcyte, Sunnyvale, Calif.) is used to dispense 200 nL from each well of the titration plate to the 384 well assay plate. Ten microliters of a solution of enzyme (1/2000 final dilution from aliquots; sufficient to produce 20% substrate conversion) was added to the assay plate. Next 10 uL of a separate solution of the substrate FAM-labeled cAMP (50 nM final concentration product # R7506 from Molecular Devices) and the activator cGMP (1 uM final concentration), prepared in the assay buffer (10 mM Tris HCl, pH 7.2, 10 mM MgCl2, 0.05% NaN3 0.01% Tween-20, and 1 mM DTT) was added to the assay plate and shaken to mix. The reaction is allowed to proceed at room temperature for 60 minutes. A binding solution is then made from the kit components, comprised of 80% Solution A, 20% Solution B and binding reagent at a volume of 1/600 the total binding solution. The enzymatic reaction is stopped by addition of 60 μL of the binding solution to each well of the assay plates and the plates are sealed and shaken for 30 seconds. The plate was incubated at room temperature for at least one hour prior to determining the fluorescence polarization (FP). The parallel and perpendicular fluorescence of each well of the plate was measured using a Tecan Genios Pro plate reader (Tecan, Switzerland) or Perkin Elmer EnVision™ plate reader (Waltham, Mass.). Fluorescence polarization (mP) was calculated from the parallel (S) and perpendicular (P) fluorescence of each sample well and the analogous values for the median control well, containing only substrate (So and Po), using the following equation: Polarization (mP)=1000*(S/So−P/Po)/(S/So+P/Po).
On the technique in general: Polarisation of emitted light reports the rotation of a fluorescent probe.

The target in data set [2] is T2, human PDE2A1 (Homo sapiens, UniProt O00408).
T2 construct: GST; purchased BPS Bioscience (San Diego, Calif.) 60020; host or cells: insect cells
T2 sequence (O00408 1-920 isoform O00408-2): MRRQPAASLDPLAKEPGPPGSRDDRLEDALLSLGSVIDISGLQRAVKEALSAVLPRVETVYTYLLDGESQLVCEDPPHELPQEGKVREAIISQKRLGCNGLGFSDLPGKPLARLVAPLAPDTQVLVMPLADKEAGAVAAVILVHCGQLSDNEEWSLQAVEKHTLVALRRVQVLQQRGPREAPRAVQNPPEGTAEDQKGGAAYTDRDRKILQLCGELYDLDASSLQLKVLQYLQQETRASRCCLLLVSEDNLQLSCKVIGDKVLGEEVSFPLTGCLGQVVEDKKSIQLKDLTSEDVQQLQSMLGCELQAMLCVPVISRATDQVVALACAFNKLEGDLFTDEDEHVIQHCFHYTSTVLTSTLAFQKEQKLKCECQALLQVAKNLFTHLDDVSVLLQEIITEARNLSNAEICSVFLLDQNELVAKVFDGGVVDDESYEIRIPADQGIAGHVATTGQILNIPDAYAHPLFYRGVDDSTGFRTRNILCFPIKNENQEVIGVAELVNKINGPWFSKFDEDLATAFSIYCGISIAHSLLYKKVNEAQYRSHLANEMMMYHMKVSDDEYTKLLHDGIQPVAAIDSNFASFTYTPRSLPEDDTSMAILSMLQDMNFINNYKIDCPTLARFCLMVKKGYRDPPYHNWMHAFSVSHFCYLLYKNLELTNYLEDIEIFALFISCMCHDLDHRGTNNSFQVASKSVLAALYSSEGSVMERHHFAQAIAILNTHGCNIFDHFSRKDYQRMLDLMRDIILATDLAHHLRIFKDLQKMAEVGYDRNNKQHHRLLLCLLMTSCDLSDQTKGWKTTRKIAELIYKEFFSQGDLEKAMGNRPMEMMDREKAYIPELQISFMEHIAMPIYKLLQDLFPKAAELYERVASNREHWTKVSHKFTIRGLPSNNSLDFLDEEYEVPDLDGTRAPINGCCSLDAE
In words: IMAP FP PDE selectivity panel, human PDE2A1. It counts as biochemical. The note with it: Human PDE2 Ki (nM) Lab B. The gist of the method:
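IMAP FP read-out, run at room temperature in parallel with PDE1–11: enzyme at 20% substrate conversion, 50 nM FAM-cAMP containing 1000 nM cGMP, Tris pH 7.2/MgCl2/DTT buffer. Compounds as ten 3-fold dilutions. Reaction 60 min, stopped with binding reagent for 1 h before polarization measurement.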

For data set [3], the system named is other PDE isoforms. The note with it: reported in Annual Reports in Medicinal Chemistry 42: 4-5, 2007; cited from earlier work.
For data set [4] the following is noted: reported in Annual Reports in Medicinal Chemistry 42: 4-5, 2007; cited from earlier work.

A word on the Ki: it is a measure of affinity in units of concentration, obtained from inhibition or displacement.

As for `Cc1cc(NC2(c3ccc(C(F)(F)F)c(F)c3)CC2)n2ncnc2n1` [Example 57, N-{1-[3-Fluoro-4-(trifluoromethyl)phenyl]cyclopropyl}-5-methyl [1,2,4]triazolo[1,5-a]pyrimidin-7-amine], the Ki in data set [1] came out at 22 nM; in data set [2], 21 nM.
For `Cc1cc(NC2(c3ccc(C(F)(F)F)cc3)CC2)n2ncnc2n1` [Example 56, 5-Methyl-N-{1-[4-(trifluoromethyl)phenyl]cyclopropyl}[1,2,4]triazolo[1,5-a]pyrimidin-7-amine] the same measures were 61 nM and 79 nM.
With `Cc1cc(N[C@@H](c2ccc(OC(F)(F)F)c(F)c2)C(C)(C)O)n2ncnc2n1` (single isomer, unassigned) [Example 92], the Ki in data set [1] worked out at 6.8 nM; in data set [2] it was 5.4 nM.
On to `COc1ccc(Cc2nn3c([C@@H](CCCc4ccccc4)[C@@H](C)O)nc(C)c3c(=O)[nH]2)cc1OC` [BAY 60-7550], for which the “potency at other PDE isoforms” value in data set [3] is listed as “significant potency”. Moreover, in data set [4], the brain penetration result is reported as “limited”.

Source of the values: patent publication US10357481B2 (MERCK SHARP & DOHME CORP., priority 2015, dated 2019).
